According to patent publication US20240190880A1 (THE REGENTS OF THE UNIVERSITY OF MICHIGAN, priority 2021, published 2024):

Biological target: T1, ER (Homo sapiens, UniProt P03372)
T1 construct: host or cells: T47D and MCF7 human breast cancer cells
T1 sequence (P03372 1-595): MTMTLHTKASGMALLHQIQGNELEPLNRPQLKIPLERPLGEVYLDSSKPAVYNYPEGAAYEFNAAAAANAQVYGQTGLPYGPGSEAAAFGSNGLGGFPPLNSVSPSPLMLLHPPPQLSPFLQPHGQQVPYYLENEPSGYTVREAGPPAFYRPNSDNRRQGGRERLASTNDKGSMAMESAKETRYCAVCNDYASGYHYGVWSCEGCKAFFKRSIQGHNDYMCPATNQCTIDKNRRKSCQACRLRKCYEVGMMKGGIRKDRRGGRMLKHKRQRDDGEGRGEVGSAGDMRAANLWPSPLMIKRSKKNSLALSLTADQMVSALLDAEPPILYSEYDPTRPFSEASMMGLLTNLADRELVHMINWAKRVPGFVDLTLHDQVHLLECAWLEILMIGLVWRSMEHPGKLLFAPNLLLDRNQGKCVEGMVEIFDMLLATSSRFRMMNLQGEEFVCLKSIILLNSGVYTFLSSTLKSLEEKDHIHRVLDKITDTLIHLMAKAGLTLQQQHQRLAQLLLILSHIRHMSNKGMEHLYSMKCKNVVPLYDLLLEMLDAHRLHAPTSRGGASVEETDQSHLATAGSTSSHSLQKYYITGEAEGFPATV
Assay: ER degradation activity, in-cell western blot analysis in T47D cells
Format: cell-based
Details: 16 hours, Table A does not say which cell line (T47D or MCF7), read-out: Potency (DC50)
Outline: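 T47D cells cultured in DMEM with 10% FBS, treated with compounds (final 0.5% DMSO) for 16 h. ER level measured by in-cell western with anti-rabbit-680/anti-mouse-800 near-infrared detection. Relative ER percentage calculated against untreated and DMSO-treated wells set as 100%.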

Row | SMILES | DC50 [µM]
1 | C[C@@H]1Cc2c([nH]c3ccccc23)[C@@H](c2c(F)cc(N3CCC(N4CCC(CC(=O)N5Cc6cc7c(cc6C5)C(=O)N(C5CCC(=O)NC5=O)C7=O)CC4)CC3)cc2F)N1CC(F)F (stereo partly drawn) [E 93, 6-(2-(1′-(4-((1R,3R)-2-(2,2-difluoroethyl)-3-methyl-2,3,4,9-tetrahydro-1H-pyrido[3,4-b]indol-1-yl)-3,5-difluorophenyl)-[1,4′-bipiperidin]-4-yl)acetyl)-2-(2,6-dioxopiperidin-3-yl)-6,7-dihydropyrrolo[3,4-f]isoindole-1,3(2H,5H)-dione] | < 0.01
2 | C[C@@H]1Cc2c([nH]c3ccccc23)[C@@H](c2c(F)cc(N3CCCC4(CN(C(=O)CN5Cc6cc7c(cc6C5)C(=O)N(C5CCC(=O)NC5=O)C7=O)C4)C3)cc2F)N1CC(F)F (stereo partly drawn) [E 81, 6-(2-(6-(4-((1R,3R)-2-(2,2-difluoroethyl)-3-methyl-2,3,4,9-tetrahydro-1H-pyrido[3,4-b]indol-1-yl)-3,5-difluorophenyl)-2,6-diazaspiro[3.5]nonan-2-yl)-2-oxoethyl)-2-(2,6-dioxopiperidin-3-yl)-6,7-dihydropyrrolo[3,4-f]isoindole-1,3(2H,5H)-dione] | 0.01 to 0.1
3 | C[C@@H]1Cc2cc(O)ccc2[C@@H](c2c(F)cc(N3CCC4(CN(C(=O)CN5Cc6cc7c(cc6C5)C(=O)N(C5CCC(=O)NC5=O)C7)C4)C3)cc2F)N1CC(F)F (stereo partly drawn) [E 37, 3-(6-(2-(6-(4-((1S,3R)-2-(2,2-difluoroethyl)-6-hydroxy-3-methyl-1,2,3,4-tetrahydroisoquinolin-1-yl)-3,5-difluorophenyl)-2,6-diazaspiro[3.4]octan-2-yl)-2-oxoethyl)-1-oxo-3,5,6,7-tetrahydropyrrolo[3,4-f]isoindol-2(1H)-yl)piperidine-2,6-dione] | < 0.01
4 | O=C1CCC(N2C(=O)c3cc4c(cc3C2=O)CN(CC2CCC(N3CCN(c5ccc([C@@H]6c7ccc(O)cc7CC[C@@H]6c6ccccc6)cc5)CC3)CC2)C4)C(=O)N1 (stereo partly drawn) [E 299, 2-(2,6-dioxopiperidin-3-yl)-6-((4-(4-(4-((1R,2S)-6-hydroxy-2-phenyl-1,2,3,4-tetrahydronaphthalen-1-yl)phenyl)piperazin-1-yl)cyclohexyl)methyl)-6,7-dihydropyrrolo[3,4-f]isoindole-1,3(2H,5H)-dione] | 0.01 to 0.1
5 | C[C@@H]1Cc2c([nH]c3ccccc23)[C@@H](c2c(F)cc(N3CCC4(CCN(C(=O)CN5Cc6cc7c(cc6C5)C(=O)N(C5CCC(=O)NC5=O)C7=O)CC4)CC3)cc2F)N1CC(F)(F)F (stereo partly drawn) [E 226, 6-(2-(9-(3,5-difluoro-4-((1R,3R)-3-methyl-2-(2,2,2-trifluoroethyl)-2,3,4,9-tetrahydro-1H-pyrido[3,4-b]indol-1-yl)phenyl)-3,9-diazaspiro[5.5]undecan-3-yl)-2-oxoethyl)-2-(2,6-dioxopiperidin-3-yl)-6,7-dihydropyrrolo[3,4-f]isoindole-1,3(2H,5H)-dione] | 0.01 to 0.1
6 | CN(c1ccc([C@H]2c3ccc(O)cc3CC[C@H]2c2ccccc2)cc1)C1CN([C@H]2CC[C@H](C(=O)N3Cc4cc5c(cc4C3)C(=O)N(C3CCC(=O)NC3=O)C5=O)CC2)C1 (stereo partly drawn) [E 394, 2-(2,6-dioxopiperidin-3-yl)-6-((1S,4r)-4-(3-((4-((1S,2R)-6-hydroxy-2-phenyl-1,2,3,4-tetrahydronaphthalen-1-yl)phenyl)(methyl)amino)azetidin-1-yl)cyclohexane-1-carbonyl)-6,7-dihydropyrrolo[3,4-f]isoindole-1,3(2H,5H)-dione] | > 0.1
7 | C[C@@H]1Cc2c([nH]c3ccccc23)[C@@H](c2c(F)cc(N3CCC(CN4CC(N5Cc6cc7c(cc6C5)C(=O)N(C5CCC(=O)NC5=O)C7)C4)CC3)cc2F)N1CC(F)F (stereo partly drawn) [E 52, 3-(6-(1-((1-(4-((1R,3R)-2-(2,2-difluoroethyl)-3-methyl-2,3,4,9-tetrahydro-1H-pyrido[3,4-b]indol-1-yl)-3,5-difluorophenyl)piperidin-4-yl)methyl)azetidin-3-yl)-1-oxo-3,5,6,7-tetrahydropyrrolo[3,4-f]isoindol-2(1H)-yl)piperidine-2,6-dione] | < 0.01
8 | O=C1CCC(N2C(=O)c3cc4c(cc3C2=O)CN(CC(=O)N2CCC3(CC2)CCN(c2ccc(C(=C(CCCl)c5ccc(F)cc5)c5ccc(O)cc5)cc2)CC3)CC4)C(=O)N1 (centres unmarked) [E 193] | 0.01 to 0.1
9 | O=C1CCC(N2Cc3cc4c(cc3C2=O)CN(C(=O)[C@H]2CC[C@@H](N3CC(Oc5ccc([C@@H]6c7ccc(O)cc7CC[C@@H]6c6ccccc6)cc5)C3)CC2)C4)C(=O)N1 (single isomer, unassigned) [E 358] | > 0.1
10 | C[C@@H]1Cc2c([nH]c3ccccc23)[C@@H](c2c(F)cc(N3CC4(CC(C(=O)N5CCC(N6Cc7cc8c(cc7C6)C(=O)N(C6CCC(=O)NC6=O)C8=O)CC5)C4)C3)cc2F)N1CC(F)F (stereo partly drawn) [E 116, 6-(1-(2-(4-((1R,3R)-2-(2,2-difluoroethyl)-3-methyl-2,3,4,9-tetrahydro-1H-pyrido[3,4-b]indol-1-yl)-3,5-difluorophenyl)-2-azaspiro[3.3]heptane-6-carbonyl)piperidin-4-yl)-2-(2,6-dioxopiperidin-3-yl)-6,7-dihydropyrrolo[3,4-f]isoindole-1,3(2H,5H)-dione] | < 0.01
11 | C[C@@H]1Cc2c([nH]c3ccccc23)[C@@H](c2c(F)cc(N3CCC4(CCN(CC(=O)N5Cc6cc7c(cc6C5)C(=O)N(C5CCC(=O)NC5=O)C7)C4)CC3)cc2F)N1CC(F)F (stereo partly drawn) [E 63, 3-(6-(2-(8-(4-((1R,3R)-2-(2,2-difluoroethyl)-3-methyl-2,3,4,9-tetrahydro-1H-pyrido[3,4-b]indol-1-yl)-3,5-difluorophenyl)-2,8-diazaspiro[4.5]decan-2-yl)acetyl)-1-oxo-3,5,6,7-tetrahydropyrrolo[3,4-f]isoindol-2(1H)-yl)piperidine-2,6-dione] | < 0.01
12 | C[C@@H]1Cc2c([nH]c3ccccc23)[C@@H](c2c(F)cc(N3CCCC4(CCN(C(=O)CN5Cc6cc7c(cc6C5)C(=O)N(C5CCC(=O)NC5=O)C7=O)C4)C3)cc2F)N1CC(F)F (stereo partly drawn) [E 78, 6-(2-(7-(4-((1R,3R)-2-(2,2-difluoroethyl)-3-methyl-2,3,4,9-tetrahydro-1H-pyrido[3,4-b]indol-1-yl)-3,5-difluorophenyl)-2,7-diazaspiro[4.5]decan-2-yl)-2-oxoethyl)-2-(2,6-dioxopiperidin-3-yl)-6,7-dihydropyrrolo[3,4-f]isoindole-1,3(2H,5H)-dione] | > 0.1

Same assay, conditions: compounds 16 hours, Table A does not say whether T47D or MCF7, read-out: Potency (DC50)

Row | SMILES | DC50 [µM]
13 | CC1(C(=O)N2CCC(N3Cc4cc5c(cc4C3)C(=O)N(C3CCC(=O)NC3=O)C5=O)CC2)CCN(c2ccc([C@@H]3c4ccc(O)cc4CC[C@@H]3c3ccccc3)cc2)CC1 (mixture of isomers) [E 488, rac-2-(2,6-dioxopiperidin-3-yl)-6-(1-(1-(4-((1R,2S)-6-hydroxy-2-phenyl-1,2,3,4-tetrahydronaphthalen-1-yl)phenyl)-4-methylpiperidine-4-carbonyl)piperidin-4-yl)-6,7-dihydropyrrolo[3,4-f]isoindole-1,3(2H,5H)-dione] | > 0.1
14 | O=C1CCC(N2C(=O)c3cc4c(cc3C2=O)CN(CC(=O)N2CCC3(CC2)CCN(c2ccc([C@@H]5c6ccc7[nH]ncc7c6CC[C@@H]5c5ccccc5)cc2)CC3)C4)C(=O)N1 (stereo partly drawn) [E 423, 2-(2,6-dioxopiperidin-3-yl)-6-(2-oxo-2-(9-(4-((6R,7S)-7-phenyl-6,7,8,9-tetrahydro-3H-benzo[e]indazol-6-yl)phenyl)-3,9-diazaspiro[5.5]undecan-3-yl)ethyl)-6,7-dihydropyrrolo[3,4-f]isoindole-1,3(2H,5H)-dione] | 0.01 to 0.1
